Values of other authors, collected in patent US20110257090A1, “SOLUTIONS FOR VOLUME THERAPY” (FRESENIUS KABI DEUTSCHLAND GMBH, priority 2008, published 2011).

Test system: cultured mammalian cells
Details: long-term studies

O=S(=O)(O)CCN(CCO)CCO [BES, N,N-bis(2-hydroxyethyl)-2-aminoethanesulfonic acid]
toxicity to cultured mammalian cells: non-toxic
